Experimental data taken from patent US20260008817A1, “CYCLIC PEPTIDE OR SALT THEREOF, AND USES THEREOF” (FUJIFILM Corporation, priority 2023, published 2026).
Positions of bridges follow the written chain, without caps; N, C: chain ends. No end group written: not given here. COCH2 = acetyl group that carries the bridge

Columns and labels:
[1] = system: BaF3 cells stably expressing FGFR (avian); test: BaF3 cell proliferation-promoting effect, avian FGFR; assay type: cell-based; settings: viable cells at the addition concentration (0.001 to 10 nmol/L) with largest number; 2 nights
Experimental: (§1) The FGFR phosphorylation ability of the cyclic peptide complex was evaluated using the BaF3 cell proliferation-promoting effect in which FGFR was stably expressed.
(§2) BaF3 cells stably expressing FGFR were established by introducing a vector (human: Gene Copoeia, EX-Y2820-M67, bovine: sequence of Accession No. A4IFL5 was introduced into pCDNA3.1/Hygro(+) Mammalian Expression Vector (Thermo, V87020), porcine: sequence of Accession No. A0A8D1E4H1 was introduced into pCDNA3.1/Hygro(+) Mammalian Expression Vector (Thermo, V87020), and avian: sequence of Accession No. P21804 was introduced into pCDNA3.1/Hygro(+) Mammalian Expression Vector (Thermo, V87020)) into which FGFR gene had been incorporated, into BaF3 cells using Nucleofector and performing drug selection of cells into which the FGFR gene had been introduced using hygromycin.
(§3) The evaluation of the proliferation-promoting effect of BaF3 cells in which FGFR is stably expressed was performed by the following method. […] The number of viable cells was calculated from the imaging data, and the cell proliferation-promoting effect was evaluated according to the following evaluation criteria. […]

[2] = system: BaF3 cells stably expressing FGFR (porcine); test: BaF3 cell proliferation-promoting effect, porcine FGFR; assay type: cell-based; settings: viable cells at the addition concentration (0.001 to 10 nmol/L) with largest number; 2 nights
Experimental: as §1, §2, §3

[3] = system: BaF3 cells stably expressing FGFR (bovine); test: BaF3 cell proliferation-promoting effect, bovine FGFR; assay type: cell-based; settings: viable cells at the addition concentration (0.001 to 10 nmol/L) with largest number; 2 nights
Experimental: as §1, §2, §3

[4] = system: BaF3 cells stably expressing FGFR (human); test: BaF3 cell proliferation-promoting effect, human FGFR; assay type: cell-based; settings: viable cells at the addition concentration (0.001 to 10 nmol/L) with largest number; 2 nights
Experimental: as §1, §2, §3

[5] = biological target: Recombinant Human FGFR1 alpha (IIIc) Fc Chimera Protein, CF (R&D systems, 658-FR-050) (human) (UniProt P11362); test: SPR grade, peptide 10 nmol/L over FGFR1-Fc; settings: scale: moleculesofcyclicpeptide/onemoleculeoffgfr
[6] = biological target: T1, FGFR3 Protein, Human, Recombinant (ECD, His Tag) (Sino Biological, 16044-H08H) (human, UniProt P22607 23-375); test: SPR grade, FGFR 1 umol/L over immobilized peptide
T1 construct: extracellular domain; bought; flowed at 1 umol/L over immobilized peptide
T1 sequence (looked up): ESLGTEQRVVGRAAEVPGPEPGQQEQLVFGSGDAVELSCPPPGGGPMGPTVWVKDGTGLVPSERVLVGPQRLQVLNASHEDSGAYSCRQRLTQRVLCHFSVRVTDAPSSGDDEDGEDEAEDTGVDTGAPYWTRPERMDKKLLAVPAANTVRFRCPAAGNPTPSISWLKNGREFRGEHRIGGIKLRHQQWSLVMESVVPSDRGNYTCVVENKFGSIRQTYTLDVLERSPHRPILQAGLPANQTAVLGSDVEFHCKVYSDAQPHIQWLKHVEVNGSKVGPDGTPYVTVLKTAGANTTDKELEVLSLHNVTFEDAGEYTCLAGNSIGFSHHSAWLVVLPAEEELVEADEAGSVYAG
Experimental: (§4) A CM5 sensor chip (Cytiva, 29149603) was set in Biacore-T200 (manufactured by Cytiva) which is a surface plasmon resonance device, and an HBS-EP buffer (Cytiva, BR100826) was added as a running buffer at a flow rate of 10 μL/min to equilibrate the flow channel. Next, 70 μL of a mixed aqueous solution of 0.2 mol/L 1-(3-dimethylaminopropyl)-3-ethylcarbodiimide (EDC) and 0.05 mol/L N-hydroxysuccinimide (NHS) was added to activate the sensor chip. Then, a cyclic peptide prepared to 2 mg/mL in HBS-EP buffer was added thereto to perform immobilization at about 200 RU. Thereafter, the blocking treatment was performed with an ethanolamine solution. In addition, in another flow channel of the same sensor chip, blocking treatment was performed immediately after activation without […].
(§5) After various FGFRs (FGFR1 Protein, Human, Recombinant (His Tag) (Sino Biological, 10616-H08H), FGFR3 Protein, Human, Recombinant (ECD, His Tag) (Sino Biological, 16044-H08H), FGFR4 Protein, Human, Recombinant (His Tag) (Sino Biological, 10538-H08H)) diluted with HBS-EP to 1 μmol/L at 25° C. was added to each flow channel of the cyclic peptide-immobilized sensor chip prepared above, for 10 minutes, HBS-EP was allowed to flow as a running buffer for 30 minutes, and the binding of various FGFRs to the cyclic peptide was measured. […] The binding amount of the cyclic peptide was evaluated from the difference between the measured value of Biacore-T200 in the flow channel in which the cyclic peptide was immobilized and the measured value of Biacore-T200 in the flow channel in which the cyclic peptide was not immobilized, in a case where 1 μmol/L FGFR was allowed to flow.
(§6) The binding amount of FGFR evaluated above was normalized to the binding amount of FGFR molecules per one molecule of the cyclic peptide using the molecular weights of the cyclic peptide and FGFR, and the binding affinity to FGFR was evaluated according to the following evaluation criteria.

[7] = biological target: T2, FGFR1 Protein, Human, Recombinant (His Tag) (Sino Biological, 10616-H08H) (human, UniProt P11362-7 22-374); test: SPR grade, FGFR 1 umol/L over immobilized peptide
T2 construct: bought; flowed at 1 umol/L over immobilized peptide
T2 sequence (looked up): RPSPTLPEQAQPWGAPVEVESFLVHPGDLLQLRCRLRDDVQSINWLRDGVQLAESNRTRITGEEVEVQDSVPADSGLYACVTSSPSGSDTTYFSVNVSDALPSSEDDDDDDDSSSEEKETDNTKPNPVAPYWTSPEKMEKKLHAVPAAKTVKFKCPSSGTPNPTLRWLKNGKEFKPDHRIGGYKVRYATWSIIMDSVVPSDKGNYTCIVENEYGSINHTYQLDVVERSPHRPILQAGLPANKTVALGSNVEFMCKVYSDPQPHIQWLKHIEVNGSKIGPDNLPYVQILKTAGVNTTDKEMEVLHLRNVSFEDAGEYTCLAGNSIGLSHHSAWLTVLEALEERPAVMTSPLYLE
Experimental: as §4, §5, §6

[8] = biological target: T3, FGFR4 Protein, Human, Recombinant (His Tag) (Sino Biological, 10538-H08H) (human, UniProt P22455 22-369); test: SPR grade, FGFR 1 umol/L over immobilized peptide
T3 construct: bought; flowed at 1 umol/L over immobilized peptide
T3 sequence (looked up): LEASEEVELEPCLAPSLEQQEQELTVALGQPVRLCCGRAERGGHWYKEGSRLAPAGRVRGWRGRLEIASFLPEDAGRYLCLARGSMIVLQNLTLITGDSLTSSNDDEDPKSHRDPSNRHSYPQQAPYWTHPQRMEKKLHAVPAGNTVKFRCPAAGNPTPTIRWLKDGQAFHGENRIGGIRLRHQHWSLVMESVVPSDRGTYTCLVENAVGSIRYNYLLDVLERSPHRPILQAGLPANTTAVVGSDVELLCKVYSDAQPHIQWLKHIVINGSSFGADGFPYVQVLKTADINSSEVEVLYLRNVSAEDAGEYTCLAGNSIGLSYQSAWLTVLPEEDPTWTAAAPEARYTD
Experimental: as §4, §5, §6

## 343 (ACVWTFDRHAQEISQALHKVGSGSGSSGSGSSGSSACVWTFDRHAQEISQALHKV; also: cyclic peptide, ring type and places not given here) [compound 343]
[1]
  Evaluation result of cell proliferative properties Avian: B (The number of viable cells is 200 cells/well or more and less than 400 cells/well.)
[2]
  Evaluation result of cell proliferative properties Porcine: B (The number of viable cells is 200 cells/well or more and less than 400 cells/well.)
[3]
  Evaluation result of cell proliferative properties Bovine: A (The number of viable cells is 400 cells/well or more.)
[4]
  Evaluation result of cell proliferative properties Human: C (The number of viable cells is 100 cells/well or more and less than 200 cells/well.)

## 344 (ACVWTFDRHAQEISQALHKVACVWTFDRHAQEISQALHKV; also: cyclic peptide, ring type and places not given here) [compound 344]
[1]
  Evaluation result of cell proliferative properties Avian: B (The number of viable cells is 200 cells/well or more and less than 400 cells/well.)
[2]
  Evaluation result of cell proliferative properties Porcine: B (The number of viable cells is 200 cells/well or more and less than 400 cells/well.)
[3]
  Evaluation result of cell proliferative properties Bovine: A (The number of viable cells is 400 cells/well or more.)
[4]
  Evaluation result of cell proliferative properties Human: B (The number of viable cells is 200 cells/well or more and less than 400 cells/well.)

B1: cyclic peptide SEQ ID NO: 335 (peptide)
peptide: ACVWTFDRHAQEISQALHK(COCH2)VKKK
modifications: thioether 2-19
notes: chemically synthesized
[5]
  binding amount (SPR, molecules of cyclic peptide bound per one molecule of FGFR at 10 nmol/L peptide): > 0.7
[6]
  binding amount (SPR, molecules of FGFR per one molecule of cyclic peptide, at 1 umol/L FGFR): 0.01 to 0.05 moleculesoffgfr/onemoleculeofthecyclicpeptide
[7]
  binding amount (SPR, molecules of FGFR per one molecule of cyclic peptide, at 1 umol/L FGFR): ≥ 0.05 moleculesoffgfr/onemoleculeofthecyclicpeptide
[8]
  binding amount (SPR, molecules of FGFR per one molecule of cyclic peptide, at 1 umol/L FGFR): ≥ 0.05 moleculesoffgfr/onemoleculeofthecyclicpeptide
